The values below are quoted from earlier work in patent US20230309840A1, “TARGETING ABNORMAL CELL POPULATIONS FOR APOPTOSIS” (priority 2020, published 2023).

Data set [1] has as its system senescent human fibroblasts. The settings on record: at 100 μM.
For data set [2] the following is noted: in vivo.
The next data set has as its system Drosophila melanogaster. The note with it: in vivo.
For the next data set, the system named is Caenorhabditis elegans. The note with it: in vivo.
The test system of data set [3] is airway inflammation and oxidative stress.
Data set [4] has as its system prostate cancer (Pica) cell.
A further data set has as its system cancer cells. The settings on record: for anti-cancer activity: compared with curcumin.
Another data set concerns tumor. The settings on record: tumor-bearing mouse model, vs free cisplatin.

With `CC[C@H]1OC(=O)[C@H](C)[C@@H](O[C@H]2C[C@@](C)(OC)[C@@H](O)[C@H](C)O2)[C@H](C)[C@@H](O[C@@H]2O[C@H](C)C[C@H](N(C)C)[C@H]2O)[C@](C)(O)C[C@@H](C)CN(C)[C@H](C)[C@@H](O)[C@]1(C)O` [Azithromycin], the “effect on control cells” value in the data set with control cells was “without affecting control cells”. In addition, the “elimination of senescent cells” value in data set [1] is on record as “selectively eliminated large numbers of senescent cells”.

As for `COc1cc(/C=C/C(=O)CC(=O)/C=C/c2ccc(O)c(OC)c2)ccc1O` [curcumin, Curcumin], the solubility in water entry was “low aqueous solubility”. Besides, in data set [2], the bioavailability entry is listed as “poor oral bioavailability”. The “lifespan and health span” value with Drosophila melanogaster is “prolong lifespan and extend health span”. For the same compound, the “lifespan and health span” value in the data set on Caenorhabditis elegans is “prolong lifespan and extend health span”.

Take `[HH]` [hydrogen gas, hydrogen]: the “number of total cells, eosinophils, and lymphocytes” value in [3] (bronchial alveolar lavage fluid, inhalation) is “significantly reduced”. For the same compound, the IL-4 serum level result in data set [3] (following inhalation) is “significantly decreased”. In data set [3] (inhalation), the “activity of superoxide dismutase” value is “markedly upregulated”; the “increased level of malondialdehyde and myeloperoxidase” value was “significantly attenuated”; the “level of IL-4, IL-13, TNF-α and chemokine (C-X-C motif) ligand 15” value was “increased the level”.

As for `CC(C)=CCC/C(C)=C/CC/C(C)=C/CC[C@]1(C)CCc2cc(O)c(C)c(C)c2O1` [γ-Tocotrienols], the “inhibition of cell proliferation and invasion” value in [4] is “potent and specific inhibitor”.

For the compound `C[C@H]1[C@H](OC(=O)CCC(=O)O)O[C@@H]2O[C@@]3(C)CC[C@H]4[C@H](C)CC[C@@H]1[C@@]24OO3` [Artesunate], in the data set on cancer cell lines, the “effect on cancer cell lines” value is reported as “cytotoxic effects”.

For the compound `O=C1/C(=C/c2ccccc2F)CNC/C1=C\c1ccccc1F` [EF24], the anti-cancer activity entry in the data set with cancer cells is “more efficacious against various cancer cells”. Besides, the “potency in inducing cancer cell death” value in the data set on cancer cells (relative to curcumin) is on record as 10 fold. The “killing of senescent cells in combination” value in the data set with senescent cells (combined with Navitoclax) is “synergistically kill senescent cells”. The “cell viability of senescent cells” value with senescent cells (variety of senescent cells) is on record as “selectively decrease the cell viability”.

For `CC1(C)C=C(CN2C/C(=C\c3ccc(F)cc3)C(=O)/C(=C/c3ccc(F)cc3)C2)C(C)(C)N1O` [HO-3867], in the data set on cancer cells, the anti-cancer activity result is “better anti-cancer activities than curcumin”.

With `CC[C@H]1OC(=O)[C@H](C)[C@@H](O[C@H]2C[C@@](C)(OC)[C@@H](O)[C@H](C)O2)[C@H](C)[C@@H](O[C@@H]2O[C@H](C)C[C@H](N(C)C)[C@H]2O)[C@](C)(O)C[C@@H](C)/C(=N\OCOCCOC)[C@H](C)[C@@H](O)[C@]1(C)O` [Roxithromycin], the “elimination of senescent cells” value in data set [1] was “selectively eliminated large numbers of senescent cells”.

Take `O=c1c(O)c(-c2ccc(O)c(O)c2)oc2cc(O)cc(O)c12` [Quercetin]: the solubility in water entry was “poorly soluble in water”. Also, the bioavailability entry in data set [2] is “very low”.

Turning to “Tf-cisplatin complex: transferrin (Tf) conjugated cisplatin”, in the data set with tumor, the “toxicity in other tissues” value was “less toxicity in other tissues” and the tumor growth inhibition result is recorded as “inhibited tumor growth in vivo more effectively than free cisplatin”.

As for `COc1ccc(/C=C/C(=O)CC(=O)/C=C/c2ccc(OC)c(OC)c2)cc1OC` [DIMC, dimethoxycurcumin], in the data set with cancer cells, the anti-cancer activity entry is “better anti-cancer activities than curcumin”.
